We go through 75 molecules from PubChem BioAssay AID1199 (EPA DSSTox, 2008).

SMILES strings stand for the structures. Active and inactive are the calls of the source.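 The calls were made as follows: active = a tumour-causing dose and a tumour site recorded for mice in at least one sex group; inconclusive = only government mouse studies exist and were judged inadequate; inactive = mouse studies exist but none gave tumours.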

The data set has as its system mouse carcinogenicity bioassay, TD50 from CPDB. Nature of the data set: DSSTox (CPDBAS) Carcinogenic Potency Database Summary Mouse Bioassay Results. From the text:
The Carcinogenic Potency Database (CPDB) is a unique and widely used international resource of the results of over 6500 chronic, long-term animal cancer tests on over 1500 chemical substances. The CPDB provides easy access to the bioassay literature, with qualitative and quantitative analyses of both positive and negative experiments that have been published over the past 50 years in the general literature and by the National Cancer Institute/National Toxicology Program. The CPDB standardizes the diverse literature of cancer bioassays that vary widely in protocol, histopathological examination and nomenclature, and in the published author's choices of what information to provide in their papers. Results are reported in the CPDB for tests in rats, mice, hamsters, dogs, and nonhuman primates, and are based on the most positive result among all experiments for each sex-species. The DSSTox CPDBAS (all species) file incorporates data from the CPDB Summary Tables for the full list of over 1500 chemical substances tested in at least one species. Summary bioassay results for Mouse (TD50, tumor sites, male, female, both sexes) are provided in the CPDB Summary Tables and the DSSTox CPDBAS file for over 1000 chemical substances.
TD50 is a standardized quantitative measure of carcinogenic potency (analogous to an LD50) and is reported in the CPDB Summary Table for each species. Activity Score for actives is computed by mapping of LOG10 (1/TD50_Mouse_mmol) activity values spanning range [MIN, MAX] onto Integer 1-100 Activity Score range, where 100 is highest potency and 1 is lowest: Activity Score = 100 * INTEGER[(log10(1/Activity) - MIN)/(MAX […] MIN)]. If activity is reported but no TD50_Mouse_mmol value is computed, such as for a mixture, the Activity Score is assigned the activity value "50". […] Target sites are reported for each sex-species group with a positive result in the CPDB on the basis of a positive author's opinion for the particular site, using all results from both the general literature and NCI/NTP bioassays. If a chemical has two or more target sites listed, the results may be from different experiments, and a single site may be a target organ in more than one experiment, as well. Blank entry in TargetSites field indicates no results reported.

The mark [1] stands for this setting: TargetSites_Mouse_BothSexes: no positive results.
[2] abbreviates: TD50_Mouse_Note: no positive results, TargetSites_Mouse_Female: no positive results.
The mark [3] stands for this setting: TD50_Mouse_Note: TD50 is harmonic mean of more than one positive test, TargetSites_Mouse_Female: lung.
The mark [4] stands for this setting: TD50_Mouse_Note: no positive results.
The mark [5] stands for this setting: TargetSites_Mouse_Female: no positive results.
The mark [6] stands for this setting: TD50_Mouse_Note: TD50 is harmonic mean of more than one positive test, TargetSites_Mouse_Female: liver.

As for `NNC(=O)c1ccncc1`, the Potency (TD50_Mouse_Note: TD50 is harmonic mean of more than one positive test, greater than ten-fold variation among TD50 values for positive res, TargetSites_Mouse_Female: liver, lung, TargetSites_Mouse_BothSexes: mammary gland) was 0.198 mmol/kg/day.

Regarding `O=S(=O)([O-])[O-].O=S(=O)([O-])[O-].[Zr+4]`, the result under setting [1] was inactive.

For the molecule `CC(=O)C1C(=O)C=C(C)OC1=O` (stereo unspecified), the outcome under setting [2] is “inactive; no positive results”.

Turning to `CC(C)C(C(=O)OC(C#N)c1cccc(Oc2ccccc2)c1)c1ccc(Cl)cc1` (stereo unspecified), the outcome under setting [2] is “inactive; no positive results”.

As to `Cc1ccccc1[N+](=O)[O-]`, under “TD50_Mouse_Note: TD50 is harmonic mean of more than one positive test, TargetSites_Mouse_Female: large intestine, liver, vascular system”, the Potency was 0.933 mmol/kg/day.

For `CCCc1ccc2c(c1)OCO2`, the Potency under setting [3] was 0.761 mmol/kg/day.

`CCCCN(CCCC)N=O`: the Potency is 0.00689 mmol/kg/day.

Turning to `C=Cc1ccc(C)cc1`, the outcome under setting [2] is “inactive; no positive results”.

`Nc1cc([N+](=O)[O-])ccc1C(=O)O`: the outcome under setting [2] is “inactive; no positive results”.

Take `CCOc1ccc(NC(=O)CC(C)O)cc1` (stereo unspecified): where the note is “TD50_Mouse_Note: TD50_Mouse_mmol was not calculated for this mixture, but Activiity Score is assigned value of 50 to indicate active, TargetSites_Mouse_Female: no positive results”, the outcome is “active; kidney”.

As to `CC(C)=CCC/C(C)=C/C=O`, the outcome under setting [2] was “inactive; no positive results”.

For `CC(=O)Nc1ccc(S(=O)(=O)O)c2cc(S(=O)(=O)O)c(N=Nc3ccc(N=Nc4ccc(S(=O)(=O)O)cc4)c4ccc(S(=O)(=O)O)cc34)c(O)c12`, the outcome under setting [2] is “inactive; no positive results”.

As to `NC1CCCCC1`, the outcome under setting [2] was “inactive; no positive results”.

On to `CCCCOC(=O)c1ccc(O)cc1`, for which the outcome under setting [2] is “inactive; no positive results”.

With `O=S(=O)(Oc1ccc(Cl)cc1Cl)c1ccccc1`, the outcome under setting [2] is “inactive; no positive results”.

`CC1=C[C@H]2O[C@@H]3[C@H](O)C[C@@](C)(C34CO4)[C@@]2(CO)[C@H](O)C1=O` (stereo partly specified): under setting [4], the outcome is “inactive; no positive results”.

As for `O.O.O.O.O.O.O=S(=O)([O-])[O-].[Ni+2]`, the outcome under setting [2] is “inactive; no positive results”.

As to `CCCNN`, under setting [3], the Potency was 0.411 mmol/kg/day.

In the case of `NC(=O)N(CCO)N=O`, the Potency (TD50_Mouse_Note: TD50 is harmonic mean of more than one positive test, TargetSites_Mouse_Female: hematopoietic system) was 0.00615 mmol/kg/day.

For `[Cl-].[Hg+]`, the outcome under setting [4] was “inactive; no positive results”.

On to `CNNC`, for which, where the note is “TD50_Mouse_Note: TD50 is harmonic mean of more than one positive test, harmonic mean of TD50 includes a value for upper 99% confidence li, TargetSites_Mouse_Female: lung, vascular system”, the Potency was 0.000857 mmol/kg/day.

Regarding `O=C1OC(c2ccc(O)cc2)(c2ccc(O)cc2)c2ccccc21`, under “TD50_Mouse_Note: TD50 is harmonic mean of more than one positive test, TargetSites_Mouse_Female: hematopoietic system, ovary”, the Potency is 3.68 mmol/kg/day.

With `Nc1ccc(-c2ccc(N)c(Cl)c2)cc1Cl`, the Potency (TD50_Mouse_Note: TD50 value is overestimated as upper 99% confidence limit from study with 100% tumor incidence but no lifetable, harmoni) was 0.0377 mmol/kg/day.

Take `CC(N)=O`: the Potency under setting [5] was 51 mmol/kg/day.

Turning to `Nc1ccc([N+](=O)[O-])cc1O`, under setting [2], the outcome was “inactive; no positive results”.

For the molecule `Nc1ccccc1C(=O)O`, the outcome under setting [2] was “inactive; no positive results”.

For `CC(O)COC(C)(C)C` (stereo unspecified), the Potency under setting [6] is 14.1 mmol/kg/day.

On to `Nc1ccc([N+](=O)[O-])cc1`, for which the outcome under setting [2] is “inactive; no positive results”.

In the case of `CC1=CC(=O)CC(C)(C)C1`, the outcome under setting [2] was “inactive; no positive results”.

As for `CCCCCCC(=O)/C=C/CCCCCCCCC(=O)OC`, the result under setting [1] was inactive.

As for `O=c1cc(CO)occ1O`, the Potency (TD50_Mouse_Note: TD50 is harmonic mean of more than one positive test, TargetSites_Mouse_Female: thyroid gland) is 4.63 mmol/kg/day.

Consider `NNC(=O)c1ccccc1`, for which the Potency (TD50_Mouse_Note: TD50 is harmonic mean of more than one positive test, TargetSites_Mouse_Female: hematopoietic system, lung) is 0.0704 mmol/kg/day.

Take `Cc1ccc(C)c(N)c1`: the Potency under setting [6] was 3.97 mmol/kg/day.

As to `O=C1OC(=O)c2ccccc21`, the outcome under setting [2] was “inactive; no positive results”.

On to `C/C=N/N(C)C=O`, for which the Potency (TD50_Mouse_Note: TD50 is harmonic mean of more than one positive test, TargetSites_Mouse_Female: clitoral gland, lung, stomach) was 0.0251 mmol/kg/day.

Regarding `Nc1ccc([N+](=O)[O-])cc1N`, under setting [2], the outcome was “inactive; no positive results”.

As for `OCc1ccco1`, the Potency under setting [5] was 2.68 mmol/kg/day.

Consider `Cc1c2ccccc2c(C)c2c1ccc1ccccc12`, for which, for the setting “TargetSites_Mouse_Female: vascular system”, the Potency was 0.000328 mmol/kg/day.

Regarding `O=C(O)CCl`, under setting [2], the outcome is “inactive; no positive results”.

On to `CC(=O)Nc1ccc(CC(=O)O)cc1`, for which, under setting [2], the outcome is “inactive; no positive results”.

In the case of `C/C=C\c1ccc(OC)cc1`, the result under setting [2] was inactive.

As for `CC(Cl)CCl` (stereo unspecified), under setting [6], the Potency is 2.44 mmol/kg/day.

For `FC(Cl)(Cl)Cl`, under setting [2], the outcome was “inactive; no positive results”.

As for `CN(C)N=O`, the Potency (TD50_Mouse_Note: TD50 is harmonic mean of more than one positive test, TargetSites_Mouse_Female: lung, nervous system) was 0.00255 mmol/kg/day.

For the molecule `C[C@@H]1Cc2c(Cl)cc(C(=O)N[C@@H](Cc3ccccc3)C(=O)O)c(O)c2C(=O)O1`, the Potency under setting [6] was 0.0159 mmol/kg/day.

For the molecule `c1ccc2c(c1)Nc1ccccc1S2`, the outcome under setting [2] was “inactive; no positive results”.

`CC(O)CN(C)c1ccc(NN)nn1` (stereo unspecified): under setting [2], the outcome was “inactive; no positive results”.

For the molecule `CCN(N)C=O`, the Potency (TD50_Mouse_Note: TD50 is harmonic mean of more than one positive test, TargetSites_Mouse_Female: lung, vascular system) was 0.0318 mmol/kg/day.

On to `O=C(O)CN(CCN(CC(=O)O)CC(=O)O)CC(=O)O`, for which the outcome under setting [2] is “inactive; no positive results”.

With `Nc1nc(N)nc(N)n1`, under setting [2], the outcome was “inactive; no positive results”.

Take `O=[As]O`: the outcome (TD50_Mouse_Note: no positive results, TargetSites_Mouse_BothSexes: no positive results) was inactive.

With `c1ccc(Nc2ccc3ccccc3c2)cc1`, under setting [2], the outcome is “inactive; no positive results”.

Regarding `COc1cc2c(c3oc(=O)c4c(c13)CCC4=O)C1C=COC1O2` (stereo unspecified), the outcome under setting [2] was “inactive; no positive results”.

In the case of `Cc1nc(N)cc2[nH]c3ccccc3c12`, the Potency (TD50_Mouse_Note: TD50 is harmonic mean of more than one positive test, greater than ten-fold variation among TD50 values for positive res, TargetSites_Mouse_Female: liver) was 0.049 mmol/kg/day.

Turning to `CC#N`, the outcome under setting [2] was “inactive; no positive results”.

Regarding `CN1CCC[C@H]1c1cccnc1`, the outcome under setting [2] was “inactive; no positive results”.

With `CN(C)C(=S)[S-].CN(C)C(=S)[S-].[Cu+2]`, the outcome under setting [2] was “inactive; no positive results”.

On to `CN1C(=O)CN=C(c2ccccc2)c2cc(Cl)ccc21`, for which the outcome under setting [2] was “inactive; no positive results”.

In the case of `O=S1(=O)CC=CC1`, the outcome under setting [2] was “inactive; no positive results”.

Take `C=C1C[C@]23C[C@@]1(O)CC[C@H]2[C@@]12C=C[C@H](O)[C@@](C)(C(=O)O1)[C@H]2[C@@H]3C(=O)O`: the outcome under setting [2] is “inactive; no positive results”.

Take `CCN(CC)C(=S)S[Se](SC(=S)N(CC)CC)(SC(=S)N(CC)CC)SC(=S)N(CC)CC`: the Potency under setting [5] is 0.00222 mmol/kg/day.

As for `COc1ccc(CCN2CCC(Nc3nc4ccccc4n3Cc3ccc(F)cc3)CC2)cc1`, under setting [2], the outcome was “inactive; no positive results”.

Consider `C=C(C)[C@H]1Cc2c(ccc3c2O[C@@H]2COc4cc(OC)c(OC)cc4[C@@H]2C3=O)O1`, for which the outcome under setting [2] was “inactive; no positive results”.

For the molecule `S=C([S-])NCCNC(=S)[S-].[Mn+2]`, the outcome under setting [2] was “inactive; no positive results”.

Regarding `CCN(CC)C(=S)S`, under setting [2], the outcome is “inactive; no positive results”.

As for `CC1(C)S[C@@H]2[C@H](NC(=O)[C@H](N)c3ccccc3)C(=O)N2[C@H]1C(=O)O`, the outcome under setting [2] is “inactive; no positive results”.

On to `CNCCC(Oc1ccc(C(F)(F)F)cc1)c1ccccc1` (stereo unspecified), for which, under setting [2], the outcome was “inactive; no positive results”.

Take `Nc1ccc(Cl)cc1`: the outcome under setting [2] is “inactive; no positive results”. The Potency under setting [5] is 0.546 mmol/kg/day.

With `C[C@H]([C@H](O)CCC(C)(C)O)[C@H]1CC[C@@]2(O)C3=CC(=O)[C@@H]4C[C@@H](O)[C@@H](O)C[C@]4(C)[C@H]3CC[C@]12C`, under “TD50_Mouse_Note: TD50 is harmonic mean of more than one positive test, TargetSites_Mouse_Female: mammary gland”, the Potency was 7.7e-05 mmol/kg/day.

Turning to `Cc1cccn2c1nc1ccc(N)nc12`, under “TD50_Mouse_Note: TD50 is harmonic mean of more than one positive test, TargetSites_Mouse_Female: liver, vascular system”, the Potency was 0.0272 mmol/kg/day.

Regarding `CN(C)c1ccc(Cc2ccc(N(C)C)cc2)cc1`, the Potency (TargetSites_Mouse_Female: liver) is 0.814 mmol/kg/day.

As to `Cc1ccc(N=Nc2c(O)ccc3ccccc23)c([N+](=O)[O-])c1`, the Potency under setting [5] is 116 mmol/kg/day.

For the molecule `CN(C)CCC(c1ccc(Cl)cc1)c1ccccn1` (stereo unspecified), under setting [2], the outcome is “inactive; no positive results”.

Regarding `O=C(Nc1nc(-c2ccc([N+](=O)[O-])o2)cs1)C(F)(F)F`, the Potency (TargetSites_Mouse_Female: stomach) is 0.0325 mmol/kg/day.

For the molecule `C=C(C)C(=O)Nc1ccc(Cl)c(Cl)c1`, the outcome under setting [2] was “inactive; no positive results”.
